Experimental data reported in patent US6555124B1, “Use of (meth)acrylic acid copolymers to increase the permeability of mucous membranes” (BASF Aktiengesellschaft, priority 1996, dated 2003).

Assays:
in vitro = conditions: human, Caco-2, pH 6
Source text: (§1) This cell line forms on polycarbonate membranes a tissue assemblage which is very similar in appearance and protein composition to small intestinal […]. In the Transwell system (from Costar, Bodenheim, Germany), this artificial endothelial tissue separates two chambers, which are filled with medium, into the apical and the basolateral compartment. This design allows the permeation of a substance through the caco-2 tissue layer to be determined. […] An improvement in permeability is indicated by the reversible opening of the tight junctions.
(§2) Caco-2 cells were cultivated in DMEM (Dulbeccos Modified Eagle's Medium, from Gibco BRL, Eggenstein, Germany) with 10% FCS (fetal calf serum), 1% L-glutamine and 4.5 mg/ml glucose at 37° C. with 5% CO2 and 95% relative humidity. After trypsinization, the cells were spread at a density of 3×10^5 cells/cm^2 on transwell polycarbonate filters. Cells between the 30th and 50th passage were used to form monolayers. The monolayers were employed in the experiment 15-21 days (medium change every three days) after spreading of the cells.
(§3) Before the experiment, the caco-2 cell tissue was washed in the Transwell filter inserts with PBS (phosphate buffer saline). Then the apical compartment was filled with EBSS (Earl's buffered salt solution, pH 6) and the basolateral compartment was filled with DMEM. After addition of the polymer to be tested, which had been neutralized to pH 7, [Kollicoat® MAE 30D (ethyl acrylate/methacrylic acid 1:1, BASF), Eudragit® L100 (methacrylic acid/methyl methacrylate 1:1, Röhm), Eudragit® S100 (methacrylic acid/methyl methacrylate 1:2, Röhm)] in a concentration of 0.5-3% by weight and of the tracer substance into the apical compartment, samples were taken after 24 hours, and the permeation rate of the tracer substance was determined.
(§4) The experiments were analyzed by fluorescence spectrophotometry (Spex Fluorolog 1680: excitation wavelength: 488 nm, emission wavelength: 513 nm), and in the case of C22H32N6O4 by HPLC (column material: Vidac C-18; mobile phase: water/acetonitrile/0.1% trifluoroacetic acid; detection: 240 nm), the experimental results are compiled in Table 1. Measurements which were not done have been indicated by “−”.

caco-2 cell tissue = assay: in vitro
Source text: as §1, §2, §3, §4

Papp A→B at 24 h (in vitro)	Permeation rate (caco-2 cell tissue; human, Caco-2, 24 h, pH 6)	Structure (SMILES)	Permeation rate (caco-2 cell tissue; Control (no polymer), caco-2 monolayer, apical EBSS pH 6, samples after 24 hours)	Permeation rate (caco-2 cell tissue; with Eudragit L 100 2.0% by weight (neutralized to pH 7) apical, 24 hours)	Permeation rate (caco-2 cell tissue; with Eudragit S 100 2.0% by weight (neutralized to pH 7) apical, 24 hours)	Permeation rate (caco-2 cell tissue; with Kollicoat MAE 30 D 0.5% by weight (neutralized to pH 7) apical, 24 hours)	Permeation rate (caco-2 cell tissue; with Kollicoat MAE 30 D 1.0% by weight (neutralized to pH 7) apical, 24 hours)	Permeation rate (caco-2 cell tissue; with Kollicoat MAE 30 D 1.5% by weight (neutralized to pH 7) apical, 24 hours)
0.56 ×10⁻⁶ cm/s	56 (cm/sec) · 10^−8	N=C(N)c1ccc(CNC(=O)[C@@H]2CCCN2C(=O)[C@H](NCC(=O)O)C2CCCCC2)cn1 [C22H32N6O4, HOOC—CH2—(D)-Cha-Pro-NH-3-(6-Am)-Pico]	–	–	–	–	–	–
–	–	O=C(CCCCCNC(=O)CCCC[C@@H]1SC[C@@H]2NC(=O)N[C@@H]21)NCCCCCNC(=S)Nc1ccc2c(c1)C(=O)OC21c2ccc(O)cc2Oc2cc(O)ccc21 [Fluorescein-biotin, (biotin-amidocaproylamido)-(pentylthioureidyl)-fluorescein]	2.3 (cm/sec) · 10^−8	4.8 (cm/sec) · 10^−8	7.1 (cm/sec) · 10^−8	2.3 (cm/sec) · 10^−8	5.8 (cm/sec) · 10^−8	20 (cm/sec) · 10^−8
